The target in test [1] is T1, Carbonic anhydrase (Bos taurus) (UniProt P00921+Q95323+P18915+Q3SZX4).
Description: Inhibitory activity against bovine Carbonic anhydrase
The species named for another test is Bos taurus. As to the kind of experiment: Inhibitory activity against bovine erythrocyte B enzyme.
In test [2] the target is T1, Carbonic anhydrase (Bos taurus). As to the kind of experiment: Inhibitory activity against Carbonic anhydrase. Type of test: protein assay.

As for `Cc1ccc(S(N)(=O)=O)cc1`, in test [1], the Log II50 was 0.78.
In test [1], `NS(=O)(=O)c1ccccc1` yielded a Log II50 of 0.58.
Consider `NS(=O)(=O)c1cccc(Cl)c1`, for which the Log II50 in the test listed under Bos taurus is 1.
Take `NS(=O)(=O)c1ccc(Cl)cc1`: the Log II50 in test [1] turned out to be 1.08.
Compound `Cc1cccc(S(N)(=O)=O)c1` showed a Log II50 in test [1] of 0.66.
Still for that read-out and setting: to `COc1ccc(S(N)(=O)=O)cc1` belongs 0.71.
As for `NS(=O)(=O)c1ccc(Cl)c(Cl)c1`, the Log II50 in test [1] is 1.76.
`NS(=O)(=O)c1cccc([N+](=O)[O-])c1`: the Log II50 in test [1] worked out at 1.25.
Same read-out and setting: to `CNc1ccc(S(N)(=O)=O)cc1` belongs 0.18.
`NS(=O)(=O)c1ccccc1Cl` showed a Log II50 in the test listed under Bos taurus of 0.88.
As for `CC(=O)Nc1ccc(S(N)(=O)=O)cc1`, the Log II50 in test [1] amounted to 1.48.
In turn, `Cc1ccccc1S(N)(=O)=O` had a Log II50 in test [1] of 0.16.
Turning to `NS(=O)(=O)c1ccc(Cl)c([N+](=O)[O-])c1`, the Log II50 in test [2] was determined as 2.13.
For the compound `NS(=O)(=O)c1ccc([N+](=O)[O-])c(Cl)c1`, the Log II50 in test [1] stood at 1.74.
In turn, `CC(=O)c1ccc(S(N)(=O)=O)cc1` yielded a Log II50 in the test listed under Bos taurus of 1.32.
In turn, `Cc1ccc(S(N)(=O)=O)cc1C` displayed a Log II50 in test [1] of 0.48.

(Values after ChEMBL document CHEMBL1124467, “The binding of benzenesulfonamides to carbonic anhydrase enzyme. A molecular mechanics study and quantitative structure-activity relationships” (J Med Chem, 1989).)
